For 25 molecules, IC50 results are on record in US20260028326A1, “COMPOUND BASED ON ISOINDOLINE-SUBSTITUTED GLUTARIMIDE BACKBONE AND USE THEREOF” (GLUETACS THERAPEUTICS (SHANGHAI) CO., LTD., priority 2022, published 2026).

human Cereblon WT GST-tagged protein, sequence (Q96SW2 whole entry): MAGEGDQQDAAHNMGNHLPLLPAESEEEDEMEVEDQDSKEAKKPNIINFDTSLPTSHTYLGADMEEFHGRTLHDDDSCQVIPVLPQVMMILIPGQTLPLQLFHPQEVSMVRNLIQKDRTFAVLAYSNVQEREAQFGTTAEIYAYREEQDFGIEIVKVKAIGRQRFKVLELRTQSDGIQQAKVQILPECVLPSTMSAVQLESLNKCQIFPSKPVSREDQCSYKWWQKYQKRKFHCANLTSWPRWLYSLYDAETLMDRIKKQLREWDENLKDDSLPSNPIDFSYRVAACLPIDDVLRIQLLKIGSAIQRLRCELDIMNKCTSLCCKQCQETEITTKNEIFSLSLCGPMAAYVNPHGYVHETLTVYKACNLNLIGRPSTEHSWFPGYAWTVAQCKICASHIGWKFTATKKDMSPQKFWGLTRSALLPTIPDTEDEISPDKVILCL

The target in this test is human Cereblon WT GST-tagged protein (Homo sapiens (Human), UniProt Q96SW2). Description: CRBN-binding affinity, HTRF (CEREBLON BINDING kit). In short, it runs like this:
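GST-tagged human WT Cereblon incubated with compound, then Thalidomide-Re tracer and anti-GST Eu antibody added. Displacement read by HTRF, reported as CRBN binding inhibition rate against blank control wells without protein.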
On the technique in general: TR-FRET usually uses a lanthanide donor and a delayed reading to cut background.
For the molecule `CC1(C)CCC(C(=O)N2C3CCC2CN(c2ccc4c(c2)CN(C2CCC(=O)NC2=O)C4=O)C3)=C(c2ccc(F)cc2)C1` (stereo not shown) [GT-05491, 3-(5-(8-(4′-fluoro-5,5-dimethyl-3,4,5,6-tetrahydro-[1,1′-biphenyl]-2-carbonyl)-3,8-diazabicyclo[3.2.1]octan-3-yl)-1-oxoisoindolin-2-yl)piperidine-2,6-dione], the IC50 was found to be 970 nM.
Turning to `CC1(C)CCC(CN2C3CCC2CN(Cc2cc4c(cc2F)C(=O)N(C2CCC(=O)NC2=O)C4)C3)=C(c2ccc(Cl)cc2)C1` (stereo not shown) [GT-05535, 3-(5-((8-((4′-chloro-5,5-dimethyl-3,4,5,6-tetrahydro-[1,1′-biphenyl]-2-yl)methyl)-3,8-diazabicyclo[3.2.1]octan-3-yl)methyl)-6-fluoro-1-oxoisoindolin-2-yl)piperidine-2,6-dione], the IC50 was 1790 nM.
In turn, `O=C1CCC(N2Cc3cc(CN4C5CC4CN(Cc4ccccc4-c4ccc(Cl)cc4)C5)c(F)cc3C2=O)C(=O)N1` (stereo not shown) [GT-05609, 3-(5-((3-((4′-chloro-[1,1′-biphenyl]-2-yl)methyl)-3,6-diazabicyclo[3.1.1]heptan-6-yl)methyl)-6-fluoro-1-oxoisoindolin-2-yl)piperidine-2,6-dione] registered a concentration for half-maximal inhibition (IC50) of 540 nM.
`O=C1CCC(N2Cc3c(C(=O)N4CCN(Cc5ccccc5-c5ccc(Cl)cc5)CC4)cccc3C2=O)C(=O)N1` (stereo not shown) [GT-05486, 3-(4-(4-((4′-chloro-[1,1′-biphenyl]-2-yl)methyl)piperazine-1-carbonyl)-1-oxoisoindolin-2-yl)piperidine-2,6-dione] had an IC50 of 1560 nM.
The molecule `O=C1CCC(N2Cc3cc(CN4CC5CC(C4)N5Cc4ccccc4-c4ccc(Cl)cc4)ccc3C2=O)C(=O)N1` (stereo not shown) [GT-05704, 3-(5-((6-((4′-chloro-[1,1′-biphenyl]-2-yl)methyl)-3,6-diazabicyclo[3.1.1]heptan-3-yl)methyl)-1-oxoisoindolin-2-yl)piperidine-2,6-dione] returned an IC50 of 680 nM.
The molecule `O=C1CCC(N2Cc3cc(C(=O)N4CC5(CN(Cc6ccccc6-c6ccc(Cl)cc6)C5)C4)ccc3C2=O)C(=O)N1` (stereo not shown) [GT-05637, 3-(5-(6-((4′-chloro-[1,1′-biphenyl]-2-yl)methyl)-2,6-diazaspiro[3.3]heptane-2-carbonyl)-1-oxoisoindolin-2-yl)piperidine-2,6-dione] returned an IC50 of 1070 nM.
Take `O=C1CCC(N2Cc3cc(CN4CCN(C(=O)C5=C(c6ccc(F)cc6)CCCC5)CC4)ccc3C2=O)C(=O)N1` (stereo not shown) [GT-04170, 3-(5-((4-(4′-fluoro-3,4,5,6-tetrahydro-[1,1′-biphenyl]-2-carbonyl)piperazin-1-yl)methyl)-1-oxoisoindolin-2-yl)piperidine-2,6-dione]: the IC50 amounted to 1010 nM.
Consider `CC1(C)CCC(CN2CCC3(CC2)CN(Cc2ccc4c(c2)CN(C2CCC(=O)NC2=O)C4=O)C3)=C(c2ccc(F)cc2)C1` (stereo not shown) [GT-05506, 3-(5-((7-((4′-fluoro-5,5-dimethyl-3,4,5,6-tetrahydro-[1,1′-biphenyl]-2-yl)methyl)-2,7-diazaspiro[3.5]nonan-2-yl)methyl)-1-oxoisoindolin-2-yl)piperidine-2,6-dione], for which the IC50 came to 540 nM.
In the case of `O=C1CCC(N2C(=O)c3ccc(N4CC5CCC4CN5Cc4ccccc4-c4ccc(Cl)cc4)cc3C2=O)C(=O)N1` (stereo not shown) [GT-05374, 5-(5-((4′-chloro-[1,1′-biphenyl]-2-yl)methyl)-2,5-diazabicyclo[2.2.2]octan-2-yl)-2-(2,6-dioxopiperidin-3-yl)isoindoline-1,3-dione], the IC50 was determined as 520 nM.
For the molecule `CC1(C)CCC(CN2CC3CCC(C2)N3C(=O)c2ccc3c(c2)CN(C2CCC(=O)NC2=O)C3=O)=C(c2ccc(F)cc2)C1` (stereo not shown) [GT-05451, 3-(5-(3-((4′-fluoro-5,5-dimethyl-3,4,5,6-tetrahydro-[1,1′-biphenyl]-2-yl)methyl)-3,8-diazabicyclo[3.2.1]octane-8-carbonyl)-1-oxoisoindolin-2-yl)piperidine-2,6-dione], the IC50 came to 1160 nM.
In turn, `CC1(C)CCC(CN2CC3CC(C2)N3c2ccc3c(c2)C(=O)N(C2CCC(=O)NC2=O)C3=O)=C(c2ccc(F)cc2)C1` (stereo not shown) [GT-05386, 2-(2,6-dioxopiperidin-3-yl)-5-(3-((4′-fluoro-5,5-dimethyl-3,4,5,6-tetrahydro-[1,1′-biphenyl]-2-yl)methyl)-3,6-diazabicyclo[3.1.1]heptan-6-yl)isoindoline-1,3-dione] showed an IC50 of 1460 nM.
For the molecule `CC1(C)CCC(CN2CC3CCC(C2)N3Cc2ccc3c(c2)C(=O)N(C2CCC(=O)NC2=O)C3)=C(c2ccc(Cl)cc2)C1` (stereo not shown) [GT-05459, 3-(6-((3-((4′-chloro-5,5-dimethyl-3,4,5,6-tetrahydro-[1,1′-biphenyl]-2-yl)methyl)-3,8-diazabicyclo[3.2.1]octan-8-yl)methyl)-1-oxoisoindolin-2-yl)piperidine-2,6-dione], the IC50 amounted to 1120 nM.
Next, `O=C1CCC(N2Cc3cc(CN4CCN(C(=O)c5ccncc5-c5ccc(Cl)cc5)CC4)ccc3C2=O)C(=O)N1` (stereo not shown) [GT-04222, 3-(5-((4-(3-(4-chlorophenyl)isonicotinoyl)piperazin-1-yl)methyl)-1-oxoisoindolin-2-yl)piperidine-2,6-dione]: 560 nM; `O=C1CCC(N2Cc3cc(CN4CC5(C4)CN(C(=O)c4ccccc4-c4ccc(Cl)cc4)C5)ccc3C2=O)C(=O)N1` (stereo not shown) [GT-05708, 3-(5-((6-(4′-chloro-[1,1′-biphenyl]-2-carbonyl)-2,6-diazaspiro[3.3]heptan-2-yl)methyl)-1-oxoisoindolin-2-yl)piperidine-2,6-dione]: 550 nM; `CC1(C)CCC(C(=O)N2C3CCC2CN(Cc2ccc4c(c2)CN(C2CCC(=O)NC2=O)C4=O)C3)=C(c2ccc(Cl)cc2)C1` (stereo not shown) [GT-05523, 3-(5-((8-(4′-chloro-5,5-dimethyl-3,4,5,6-tetrahydro-[1,1′-biphenyl]-2-carbonyl)-3,8-diazabicyclo[3.2.1]octan-3-yl)methyl)-1-oxoisoindolin-2-yl)piperidine-2,6-dione]: 860 nM.
With `CC1(C)CCC(CN2CCN(Cc3cc(F)c4c(c3)CN(C3CCC(=O)NC3=O)C4=O)CC2)=C(c2ccc(F)cc2)C1` (stereo not shown) [GT-05392, 3-(7-fluoro-5-((4-((4′-fluoro-5,5-dimethyl-3,4,5,6-tetrahydro-[1,1′-biphenyl]-2-yl)methyl)piperazin-1-yl)methyl)-1-oxoisoindolin-2-yl)piperidine-2,6-dione], the IC50 is 440 nM.
Consider `CC1(C)CCC(CN2C3CC2CN(Cc2ccc4c(c2)CN(C2CCC(=O)NC2=O)C4=O)C3)=C(c2ccc(Cl)cc2)C1` (stereo not shown) [GT-03995, 3-(5-((6-((4′-chloro-5,5-dimethyl-3,4,5,6-tetrahydro-[1,1′-biphenyl]-2-yl)methyl)-3,6-diazabicyclo[3.1.1]heptan-3-yl)methyl)-1-oxoisoindolin-2-yl)piperidine-2,6-dione], for which the IC50 came to 630 nM.
`CC1(C)CCC(CN2C3CC2CN(Cc2ccc4c(c2)CN(C2CCC(=O)NC2=O)C4=O)C3)=C(c2ccc(F)cc2)C1` (stereo not shown) [GT-05509, 3-(5-((6-((4′-fluoro-5,5-dimethyl-3,4,5,6-tetrahydro-[1,1′-biphenyl]-2-yl)methyl)-3,6-diazabicyclo[3.1.1]heptan-3-yl)methyl)-1-oxoisoindolin-2-yl)piperidine-2,6-dione]: the IC50 came to 250 nM.
In the case of `O=C1CCC(N2Cc3cc(C(=O)N4CCN(CC5=C(c6ccc(F)cc6)CCCC5)CC4)ccc3C2=O)C(=O)N1` (stereo not shown) [GT-05863, 3-(5-(4-((4′-fluoro-3,4,5,6-tetrahydro-[1,1′-biphenyl]-2-yl)methyl)piperazine-1-carbonyl)-1-oxoisoindolin-2-yl)piperidine-2,6-dione] it was 1020 nM; in that of `CC1(C)CCC(C(=O)N2CC3(C2)CN(C(=O)c2ccc4c(c2)CN(C2CCC(=O)NC2=O)C4=O)C3)=C(c2ccc(Cl)cc2)C1` (stereo not shown) [GT-05682, 3-(5-(6-(4′-chloro-5,5-dimethyl-3,4,5,6-tetrahydro-[1,1′-biphenyl]-2-carbonyl)-2,6-diazaspiro[3.3]heptane-2-carbonyl)-1-oxoisoindolin-2-yl)piperidine-2,6-dione], 570 nM; in that of `CC1(C)CCC(CN2C3CC2CN(C(=O)c2ccc4c(c2)CN(C2CCC(=O)NC2=O)C4=O)C3)=C(c2ccc(F)cc2)C1` (stereo not shown) [GT-05671, 3-(5-(6-((4′-fluoro-5,5-dimethyl-3,4,5,6-tetrahydro-[1,1′-biphenyl]-2-yl)methyl)-3,6-diazabicyclo[3.1.1]heptane-3-carbonyl)-1-oxoisoindolin-2-yl)piperidine-2,6-dione], 300 nM.
Next, `CC1(C)CCC(CN2CCN(C(=O)c3ccc4c(c3)CN(C3CCC(=O)NC3=O)C4=O)CC2)=C(c2ccc(F)cc2)C1` (stereo not shown) [GT-05614, 3-(5-(4-((4′-fluoro-5,5-dimethyl-3,4,5,6-tetrahydro-[1,1′-biphenyl]-2-yl)methyl)piperazine-1-carbonyl)-1-oxoisoindolin-2-yl)piperidine-2,6-dione]: 1410 nM.
Turning to `CC1(C)CCC(CN2CC3CCC2CN3Cc2cccc3c2CN(C2CCC(=O)NC2=O)C3=O)=C(c2ccc(Cl)cc2)C1` (stereo not shown) [GT-05461, 3-(4-((5-((4′-chloro-5,5-dimethyl-3,4,5,6-tetrahydro-[1,1′-biphenyl]-2-yl)methyl)-2,5-diazabicyclo[2.2.2]octan-2-yl)methyl)-1-oxoisoindolin-2-yl)piperidine-2,6-dione], the IC50 is 1580 nM. The IC50 values of the last two molecules are within 1.5-fold of each other.
`CC1(C)CCC(CN2CC3(C2)CN(C(=O)c2ccc4c(c2)CN(C2CCC(=O)NC2=O)C4=O)C3)=C(c2ccc(F)cc2)C1` (stereo not shown) [GT-05508, 3-(5-(6-((4′-fluoro-5,5-dimethyl-3,4,5,6-tetrahydro-[1,1′-biphenyl]-2-yl)methyl)-2,6-diazaspiro[3.3]heptane-2-carbonyl)-1-oxoisoindolin-2-yl)piperidine-2,6-dione] displayed an IC50 of 720 nM.
In turn, `O=C1CCC(N2Cc3cc(CCN4CCN(Cc5ccccc5-c5ccc(Cl)cc5)CC4)ccc3C2=O)C(=O)N1` (stereo not shown) [GT-05876, 3-(5-(2-(4-((4′-chloro-[1,1′-biphenyl]-2-yl)methyl)piperazin-1-yl)ethyl)-1-oxoisoindolin-2-yl)piperidine-2,6-dione] had an IC50 of 120 nM.

As a reminder, the IC50 is the concentration needed to halve the response being measured. The low end stands for inhibition by little substance, the high end for a need for much substance.
